Molecular target: T1, ITK (Mus musculus, UniProt Q03526)
T1 construct: mice were sacrificed and splenocytes were isolated and used to prepare protein lysates; from tissue; host or cells: mouse splenocytes (spleen) after oral dosing
T1 sequence (Q03526 1-625): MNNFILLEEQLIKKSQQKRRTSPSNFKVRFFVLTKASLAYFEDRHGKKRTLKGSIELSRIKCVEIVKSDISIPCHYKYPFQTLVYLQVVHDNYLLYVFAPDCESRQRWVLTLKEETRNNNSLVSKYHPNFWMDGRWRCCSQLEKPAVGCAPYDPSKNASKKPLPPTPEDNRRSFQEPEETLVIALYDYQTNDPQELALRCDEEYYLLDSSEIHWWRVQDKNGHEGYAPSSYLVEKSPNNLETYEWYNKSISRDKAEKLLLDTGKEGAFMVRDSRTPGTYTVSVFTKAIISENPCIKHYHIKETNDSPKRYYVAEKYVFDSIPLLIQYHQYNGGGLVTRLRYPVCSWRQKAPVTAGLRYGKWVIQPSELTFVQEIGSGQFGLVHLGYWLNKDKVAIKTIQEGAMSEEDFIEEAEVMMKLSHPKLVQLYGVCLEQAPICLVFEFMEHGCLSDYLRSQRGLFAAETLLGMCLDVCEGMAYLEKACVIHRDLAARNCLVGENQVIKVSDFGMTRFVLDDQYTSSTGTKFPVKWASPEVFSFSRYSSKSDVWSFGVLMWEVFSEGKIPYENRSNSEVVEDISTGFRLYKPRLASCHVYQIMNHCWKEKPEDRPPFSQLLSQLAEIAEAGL
Experiment: Mouse PD assay for ITK degradation (Western blot, splenocytes after oral administration)
Type: in vivo
Details: for ITK (%) 90 mpk PO, 6 h: percent ITK remaining in mouse splenocytes relative to vehicle; for ITK degradation in vivo at 6 hours (FIG. 3A, FIG. 4A): mice, oral, splenocytes, Western blot
Description: Compounds 1, 3, 7, and 42 were formulated and administered at 90 mg/kg to mice by oral gavage (PO). Blood was collected at defined time points (after 1, 2, and 6 hours) after compounds administration to determine PK parameters. Concentration increased through 6 hours. Six hours later mice were sacrificed and splenocytes were isolated and used to prepare protein lysates. Total protein levels were determined in the lysates using the BCA assay according to standard methods. Equal amounts of protein were then analyzed by Western blot to determine the level of ITK expression in each sample. ITK band intensities were measured using Alpha View software and the percent of ITK remaining in each test animal was determined relative to the mean of ITK levels in vehicle control samples.
After 6 hours, splenocytes cells were harvested. ITK was evaluated by Western blotting.
Compounds 43, 4, 5, 10, 11, 12, 44, 14, 3, and 13 were administered to mice orally. After 6 hours, splenocytes cells were harvested. ITK was evaluated by Western blotting. Media was removed and cell pellets were lysed in 100 uL lysis buffer (RIPA buffer (Fisher, PI89901), cOmplete Mini EDTA-free protease inhibitor (Sigma 11836170001), Protease Inhibitor Cocktail (Sigma, P2714), Phosphatase Inhibitor Cocktail 2 and 3 (Sigma, P5726 and P0044), Benzonase (Sigma, E1014)). Cells were lysed overnight at −20° C. Following thaw, cells were centrifuged for 10 min at 13000 rpm, then transferred to new tube. Protein levels were determined by BCA Assay performed according to manufacturer's protocol (EMID Millipore, cat. no. 71285-3). Samples were combined with (4×) LDS Sample Buffer and (10×) Reducing Agent and H2O to equally load 20 ug protein per lane of a 26-well NuPAGE 4-12% Bis-Tris protein gel (1.0 mm, Thermo cat. no. NP0326). Samples were separated by running gels at constant 150 V in NuPAGE MES SDS Running Buffer. Following electrophoresis, proteins were transferred to nitrocellulose membranes using an iBlot Gel Transfer Device and iBlot Gel Transfer Stacks (Thermo cat. no. IB21001 and IB301001) and transfer method P3 (20V for 7 min). Membranes were blocked for 1 hr in 5% milk solution (TBS (0.2% Tween-20)). Following blocking, membranes were incubated with primary antibody (1:1000 CST ITK (2F12) #2380) overnight at 4° C. with gentle shaking. Blots were washed 2× in TBS (0.2% Tween-20), 30 min per wash. Following washes, blots were incubated in secondary HRP-conjugated antibody (Promega anti-Mouse IgG (H+L) HRP cat. no. W4021), 1:5000 in 5% milk solution (TBS (0.2% Tween-20)), for 1 hr at room temperature with gentle shaking. Blots were washed 2× in TBS (0.2% Tween-20), 30 min per wash. Blots were incubated with 1:1 mix of ECL reagents 1 & 2 (Amersham ECL Western Blotting Detection Reagent, cat. no. RPN2106) for 2 min at room temperature. Bands were visualized using a Protein Simple imager. Blots were then re-probed with a combination of anti-actin antibody (Sigma Monoclonal Mouse Anti-3-Actin (clone AC-15), cat. no. A5441) and secondary H1RP-conjugated antibody (Promega anti-Mouse IgG (H+L) HRP, cat. no. W4021) and similar steps were taken for incubation, wash, detection and visualization steps as above. The data was analyzed using Alpha View software. The densitometric reading for each sample band was normalized to that of the corresponding actin band per lane. Approximate % ITK remaining per sample was calculated as follows: […]
Once % ITK remaining has been calculated for each sample, groups are averaged together to show an means % ITK normalized to actin and relative to control.
Compounds 16, 17, and 18 were administered to mice orally. After 6 hours or 24 hours, splenocytes cells were harvested. ITK was evaluated by Western blotting. Plasma concentrations were determined by LC/MS/MS. Plasma samples were protein precipitated by addition of 100 μl of acetonitrile containing 50 ng/ml of internal standard. The resulting mixture was vortexed and centrifuged at 4000 RPM for 5 minutes. […]

In the case of `C[C@@H](C(=O)N(C)c1ccc2cc(-c3n[nH]c4c3CCC(C)(C)C4)[nH]c2c1)N1CCN(C(=O)C2CN(C3CCN(c4ccc5c(c4)C(=O)N(C4CCC(=O)NC4=O)C5=O)CC3)C2)CC1` (stereo partly drawn) [Compound 34, (2S)—N-(2-(6,6-dimethyl-4,5,6,7-tetrahydro-1H-indazol-3-yl)-1H-indol-6-yl)-2-(4-(1-(1-(2-(2,6-dioxopiperidin-3-yl)-1,3-dioxoisoindolin-5-yl)piperidin-4-yl)azetidine-3-carbonyl)piperazin-1-yl)-N-methylpropanamide], the “ITK (%) 90 mpk PO, 6 h” value is reported as 108%.

With `CN(C(=O)CCN1CCN(c2ccc3c(c2)C(=O)N(C2CCC(=O)NC2=O)C3=O)CC1)c1ccc2cc(-c3n[nH]c4c3CCC(C)(C)C4)[nH]c2c1` (stereo not drawn) [Compound 2, N-(2-(6,6-dimethyl-4,5,6,7-tetrahydro-1H-indazol-3-yl)-1H-indol-6-yl)-3-(4-(2-(2,6-dioxopiperidin-3-yl)-1,3-dioxoisoindolin-5-yl)piperazin-1-yl)-N-methylpropanamide] the “ITK (%) 90 mpk PO, 6 h” value was 49.3%.

With `Cn1c(=O)n([C@H]2CCC(=O)NC2=O)c2cccc(N3CCC(CN4CCN(C(=O)c5ccc6cc(-c7n[nH]c8c7CCC(C)(C)C8)[nH]c6c5)CC4)CC3)c21` [Compound 46, (S)-3-(4-(4-((4-(2-(6,6-dimethyl-4,5,6,7-tetrahydro-1H-indazol-3-yl)-1H-indole-6-carbonyl)piperazin-1-yl)methyl)piperidin-1-yl)-3-methyl-2-oxo-2,3-dihydro-1H-benzo[d]imidazol-1-yl)piperidine-2,6-dione] the “ITK (%) 90 mpk PO, 6 h” value was 102%.

`Cn1c(=O)n([C@@H]2CCC(=O)NC2=O)c2cccc(N3CCC(CN4CCN(C(=O)c5ccc6cc(-c7n[nH]c8c7CCC(C)(C)C8)[nH]c6c5)CC4)CC3)c21` [Compound 48, (R)-3-(4-(4-((4-(2-(6,6-dimethyl-4,5,6,7-tetrahydro-1H-indazol-3-yl)-1H-indole-6-carbonyl)piperazin-1-yl)methyl)piperidin-1-yl)-3-methyl-2-oxo-2,3-dihydro-1H-benzo[d]imidazol-1-yl)piperidine-2,6-dione] was tested, and the “ITK (%) 90 mpk PO, 6 h” value was 35%.

For `CN(C(=O)CCC1CCN(c2ccc(C3CCC(=O)NC3=O)cn2)CC1)c1ccc2cc(-c3n[nH]c4c3C[C@@H]3C(F)(F)[C@]3(C)C4)[nH]c2c1` (stereo partly drawn) [Compound 21, N-(2-((4aS,5aR)-5,5-difluoro-5a-methyl-1,4,4a,5,5a,6-hexahydrocyclopropa[f]indazol-3-yl)-1H-indol-6-yl)-3-(1-(5-(2,6-dioxopiperidin-3-yl)pyridin-2-yl)piperidin-4-yl)-N-methylpropanamide], the “ITK (%) 90 mpk PO, 6 h” value was 76%.

For `C[C@@]12Cc3[nH]nc(C(=O)Nc4cnn(CC5CN(C[C@H]6CCN(c7ccc8c(c7)C(=O)N(C7CCC(=O)NC7=O)C8=O)C6)C5)c4)c3C[C@@H]1C2(F)F` (stereo partly drawn) [Compound 44, (4aS,5aR)-N-(1-((1-(((3R)-1-(2-(2,6-dioxopiperidin-3-yl)-1,3-dioxoisoindolin-5-yl)pyrrolidin-3-yl)methyl)azetidin-3-yl)methyl)-1H-pyrazol-4-yl)-5,5-difluoro-5a-methyl-1,4,4a,5,5a,6-hexahydrocyclopropa[f]indazole-3-carboxamide], the “ITK degradation in vivo at 6 hours (FIG. 3A, FIG. 4A)” value was “degraded ITK in vivo” and the “ITK (%) 90 mpk PO, 6 h” value was 75%.

`C[C@@]12Cc3[nH]nc(C(=O)Nc4cnn(CC5CN(C(=O)C6CN(c7ccc8c(c7)C(=O)N(C7CCC(=O)NC7=O)C8=O)C6)C5)c4)c3C[C@@H]1C2(F)F` (stereo partly drawn) [Compound 43, (4aS,5aR)-N-(1-((1-(1-(2-(2,6-dioxopiperidin-3-yl)-1,3-dioxoisoindolin-5-yl)azetidine-3-carbonyl)azetidin-3-yl)methyl)-1H-pyrazol-4-yl)-5,5-difluoro-5a-methyl-1,4,4a,5,5a,6-hexahydrocyclopropa[f]indazole-3-carboxamide] was tested, and the “ITK degradation in vivo at 6 hours (FIG. 3A, FIG. 4A)” value was “degraded ITK in vivo” and the “ITK (%) 90 mpk PO, 6 h” value was 7%.

— patent US20240279202A1 (NURIX THERAPEUTICS, INC., priority 2021, published 2024)
